Source: patent US8003649B2 (AstraZeneca AB, priority 2007, dated 2011)

The compounds below were run against T1, Androgen Receptor (AR) (Homo sapiens, UniProt P10275, T878A) (assay: LNCaP Androgen Receptor Down-regulation Cell Assay (immunofluorescence end point)). Conditions: LNCaP prostate carcinoma cells, compound incubation 20-22 hours, 50% reduction of the AR signal; read-out: Androgen Receptor Down-regulation Assay (a) IC50/μM.
T1 construct: cell based immuno-fluorescence assay using the LNCaP prostate epithelial cell line; endogenous in cells; host or cells: LNCaP clone FGC (ATCC CRL-1740)
T1 sequence (P10275 1-920 T878A): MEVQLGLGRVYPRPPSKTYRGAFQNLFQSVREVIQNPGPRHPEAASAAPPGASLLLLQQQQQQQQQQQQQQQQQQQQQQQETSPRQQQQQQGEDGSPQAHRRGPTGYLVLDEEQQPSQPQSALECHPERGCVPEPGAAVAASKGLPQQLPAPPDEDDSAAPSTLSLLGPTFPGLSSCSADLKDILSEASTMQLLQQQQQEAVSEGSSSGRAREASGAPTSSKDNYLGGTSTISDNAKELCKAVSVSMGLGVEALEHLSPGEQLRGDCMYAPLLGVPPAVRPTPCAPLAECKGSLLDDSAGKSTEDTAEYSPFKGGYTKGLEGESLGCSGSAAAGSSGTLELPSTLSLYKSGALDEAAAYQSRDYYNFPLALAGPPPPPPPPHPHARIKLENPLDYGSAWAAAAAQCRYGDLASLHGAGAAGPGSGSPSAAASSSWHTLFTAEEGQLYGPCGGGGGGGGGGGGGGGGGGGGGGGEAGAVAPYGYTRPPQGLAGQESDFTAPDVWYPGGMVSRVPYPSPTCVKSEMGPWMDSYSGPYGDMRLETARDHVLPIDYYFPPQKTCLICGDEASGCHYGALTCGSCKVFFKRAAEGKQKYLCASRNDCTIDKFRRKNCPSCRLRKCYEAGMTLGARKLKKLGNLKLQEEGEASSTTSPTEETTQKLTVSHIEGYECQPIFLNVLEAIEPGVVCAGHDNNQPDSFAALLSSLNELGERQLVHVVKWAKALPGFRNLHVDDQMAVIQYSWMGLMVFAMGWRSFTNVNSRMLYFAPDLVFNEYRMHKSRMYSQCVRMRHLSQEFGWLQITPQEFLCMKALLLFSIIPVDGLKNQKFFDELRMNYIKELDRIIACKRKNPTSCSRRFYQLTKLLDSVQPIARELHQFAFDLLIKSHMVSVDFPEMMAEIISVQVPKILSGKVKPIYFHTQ
Assay type: cell-based
Summary of the method: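 AR loss reported as IC50 from curve fits of fluorescence dose-response data, with AR immunostained and read by laser-scanning cytometry. Compound exposure was 20-22 h at 37° C in LNCaP cells grown in 5% charcoal-stripped FBS and plated overnight beforehand.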

Compound	DC50 [µM]
FC(F)(F)Cc1nnc2ccc(N3CCN(C(c4ccccc4)c4ccccc4)CC3)nn12 [Example 4, 6-(4-benzhydrylpiperazin-1-yl)-3-(2,2,2-trifluoroethyl)-[1,2,4]triazolo[4,3-b]pyridazine]	2.5
CS(=O)(=O)c1ccc(CN2CCCN(c3ccc4nnc(C(F)(F)F)n4n3)CC2)cc1 [Example 166, 6-[4-[(4-methylsulfonylphenyl)methyl]-1,4-diazepan-1-yl]-3-(trifluoromethyl)-[1,2,4]triazolo[4,3-b]pyridazine]	0.93
FC(F)(F)c1ccccc1CN1CCCN(c2ccc3nnc(C(F)(F)F)n3n2)CC1 [Example 174, 3-(trifluoromethyl)-6-[4-[[2-(trifluoromethyl)phenyl]methyl]-1,4-diazepan-1-yl]-[1,2,4]triazolo[4,3-b]pyridazine]	0.94
N#Cc1ccc(CN2CCN(c3ccc4nnc(C(F)(F)F)n4n3)CC(F)(F)C2)cc1 [Example 843]	0.93
N#Cc1cccc(CN2CCN(c3ccc4nnc(C(F)(F)F)n4n3)CC(F)(F)C2)c1 [Example 844]	0.78
FC(F)(F)c1nnc2ccc(N3CCN(c4ccc(OCCn5ccnc5)cc4)CC3)nn12 [Example 845, 6-[4-[4-[2-(1H-imidazol-1-yl)ethoxy]phenyl]piperazin-1-yl]-3-(trifluoromethyl)[1,2,4]triazolo[4,3-b]pyridazine]	0.9
FC(F)(F)c1nnc2ccc(N3CCC(c4ccc(OCCn5ccnc5)cc4)CC3)nn12 [Example 846, 6-[4-[4-[2-(1H-imidazol-1-yl)ethoxy]phenyl]piperidin-1-yl]-3-(trifluoromethyl)[1,2,4]triazolo[4,3-b]pyridazine]	0.27
N#Cc1cnn(CCOc2ccc(N3CCN(c4ccc5nnc(C(F)(F)F)n5n4)CC3)cc2)c1 [Example 848, 1-[2-[4-[4-[3-(trifluoromethyl)[1,2,4]triazolo[4,3-b]pyridazin-6-yl]piperazin-1-yl]phenoxy]ethyl]-1H-pyrazole-4-carbonitrile]	3.5
FC(F)(F)c1nnc2ccc(N3CCC(c4ccc(OCCn5cccn5)cc4)CC3)nn12 [Example 849, 6-[4-[4-[2-(1H-pyrazol-1-yl)ethoxy]phenyl]piperidin-1-yl]-3-(trifluoromethyl)[1,2,4]triazolo[4,3-b]pyridazine]	0.68
N#Cc1cnn(CCOc2ccc(C3CCN(c4ccc5nnc(C(F)(F)F)n5n4)CC3)cc2)c1 [Example 850]	0.56
COCCN(C)C(=O)COc1ccc(C2CCN(c3ccc4nnc(C(F)(F)F)n4n3)CC2)cc1 [Example 851, N-(2-methoxyethyl)-N-methyl-2-[4-[1-[3-(trifluoromethyl)[1,2,4]triazolo[4,3-b]pyridazin-6-yl]piperidin-4-yl]phenoxy]acetamide]	0.92
CC(=O)N1CCN(CCOc2ccc(C3CCN(c4ccc5nnc(C(F)(F)F)n5n4)CC3)cc2)CC1 [Example 852, 6-[4-[4-[2-(4-acetylpiperazin-1-yl)ethoxy]phenyl]piperidin-1-yl]-3-(trifluoromethyl)[1,2,4]triazolo[4,3-b]pyridazine]	0.29
CS(=O)(=O)N1CCN(CCCOc2ccc(C3CCN(c4ccc5nnc(C(F)(F)F)n5n4)CC3)cc2)CC1 [Example 855, 6-[4-[4-[3-[4-(methylsulfonyl)piperazin-1-yl]propoxy]phenyl]piperidin-1-yl]-3-(trifluoromethyl)[1,2,4]triazolo[4,3-b]pyridazine]	0.44
Cn1nccc1CCOc1ccc(N2CCN(c3ccc4nnc(C(F)F)n4n3)CC2)cc1 [Example 856, 3-(difluoromethyl)-6-[4-[4-[2-(1-methyl-1H-pyrazol-5-yl]ethoxy]phenyl]piperazin-1-yl)[1,2,4]triazolo[4,3-b]pyridazine]	2.2
N#Cc1ccc(S(=O)(=O)N2CCN(c3ccc4nnc(C(F)(F)F)n4n3)CC2)cc1 [Example 857, 4-[4-[3-(trifluoromethyl)-[1,2,4]triazolo[3,4-f]pyridazin-6-yl]piperazin-1-yl]sulfonylbenzonitrile]	> 33
C[C@H](c1ccc(C#N)cc1)N1CCN(c2ccc3nnc(C(F)F)n3n2)CC1 [Example 858, 4-[(1R)-1-[4-[3-(difluoromethyl)-[1,2,4]triazolo[3,4-f]pyridazin-6-yl]piperazin-1-yl]ethyl]benzonitrile]	> 33
CS(=O)(=O)c1cc(F)cc(CN2CCN(c3ccc4nnc(C(F)F)n4n3)CC2)c1 [Example 859, 3-(difluoromethyl)-6-[4-[3-fluoro-5-(methylsulfonyl)benzyl]piperazin-1-yl][1,2,4]triazolo[4,3-b]pyridazine]	> 33
Cn1nccc1CCOc1ccc(C2(O)CCN(c3ccc4nnc(C(F)(F)F)n4n3)CC2)cc1 [Example 860, 4-[4-[2-(1-methyl-1H-pyrazol-5-yl)ethoxy]phenyl]-1-[3-(trifluoromethyl)[1,2,4]triazolo[4,3-b]pyridazin-6-yl]piperidin-4-ol]	0.8

The compounds below were run against T2, isolated rat AR-LBD (Rattus norvegicus, UniProt P15207) (assay: Androgen Receptor Ligand Binding Domain competitive binding assay, Fluorescence Polarisation (PolarScreen)). Conditions: 50% reduction in tracer compound binding to AR-LBD; read-out: Androgen Receptor FP Ligand-Binding Assay IC50/μM.
T2 construct: purchased Invitrogen PV4293
T2 sequence (P15207 651-882 limits assumed): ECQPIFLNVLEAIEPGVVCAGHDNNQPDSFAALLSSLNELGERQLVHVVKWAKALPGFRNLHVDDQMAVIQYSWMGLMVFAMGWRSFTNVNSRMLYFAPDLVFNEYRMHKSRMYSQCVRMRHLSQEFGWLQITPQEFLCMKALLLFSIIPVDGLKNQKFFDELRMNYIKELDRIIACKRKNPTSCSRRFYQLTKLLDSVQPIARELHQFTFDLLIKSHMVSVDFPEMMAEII
Procedure: b) Androgen Receptor—Ligand Binding Domain Competitive Binding Assay
The ability of compounds to bind to isolated Androgen Receptor Ligand binding domain (AR-LBD) was assessed in competition assays using either a Fluorescence Polarisation (FP) or a LanthaScreen™ Time-Resolved Fluorescence Resonance Energy Transfer (TR-FRET) detection end-point.
For the FP test, an assay test kit was purchased from Invitrogen and used to measure compound binding to the isolated rat AR-LBD which shares 100% sequence identity to the human AR-LBD. The Invitrogen PolarScreen™ Androgen Receptor Competitor Assay Red (Product Code No. PV4293), is a fluorescence polarisation (FP)-based competition assay which measures if test compound can displace a fluorescently-labelled tracer compound. If the test compound binds to the AR-LBD it will prevent the formation of the receptor/tracer complex, which will result in a low polarisation value. […] The assay was performed as essentially described in the Invitrogen method with the exception that the final assay volume was 12 μl and this required an appropriate low volume black 384 well microtitre plate. Compounds were dosed directly from a compound source microplate containing serially diluted compound (4 wells containing 10 mM, […], 1 μM and 10 nM final compound respectively) to an assay microplate using the Labcyte Echo 550. The Echo 550 is a liquid handler that uses acoustic technology to perform direct microplate-to-microplate transfers of DMSO compound solutions and the system can be programmed to transfer multiple small nL volumes of compound from the different source plate wells to give the desired serial dilution of compound in the assay which is then back-filled to normalise the DMSO concentration across the dilution range. FP dose response data obtained with each compound was exported into a suitable software package (such as Origin) to perform curve fitting analysis. Competitive AR binding was expressed as an IC50 value. This was determined by calculation of the concentration of compound that was required to give a 50% reduction in tracer compound binding to AR-LBD.

Compound	IC50 [µM]
FC(F)(F)Cc1nnc2ccc(N3CCN(C(c4ccccc4)c4ccccc4)CC3)nn12 [Example 4, 6-(4-benzhydrylpiperazin-1-yl)-3-(2,2,2-trifluoroethyl)-[1,2,4]triazolo[4,3-b]pyridazine]	20.2
FC(F)(F)c1nnc2ccc(N3CC4CC3CN4Cc3ccccc3)nn12 (centres unmarked) [Example 41, 6-(5-benzyl-2,5-diazabicyclo[2.2.1]heptan-2-yl)-3-(trifluoromethyl)-[1,2,4]triazolo[4,3-b]pyridazine]	19.6
CS(=O)(=O)c1ccc(CN2CCCN(c3ccc4nnc(C(F)(F)F)n4n3)CC2)cc1 [Example 166, 6-[4-[(4-methylsulfonylphenyl)methyl]-1,4-diazepan-1-yl]-3-(trifluoromethyl)-[1,2,4]triazolo[4,3-b]pyridazine]	6.09
FC(F)(F)c1ccccc1CN1CCCN(c2ccc3nnc(C(F)(F)F)n3n2)CC1 [Example 174, 3-(trifluoromethyl)-6-[4-[[2-(trifluoromethyl)phenyl]methyl]-1,4-diazepan-1-yl]-[1,2,4]triazolo[4,3-b]pyridazine]	16.3
Cc1ccccc1CN1CCCN(c2ccc3nnc(C(F)(F)F)n3n2)CC1 [Example 183, 6-[4-[(2-methylphenyl)methyl]-1,4-diazepan-1-yl]-3-(trifluoromethyl)-[1,2,4]triazolo[4,3-b]pyridazine]	14.4
